According to patent US20230158034A1, “CO-TREATMENT WITH CDK4/6 AND CDK2 INHIBITORS TO SUPPRESS TUMOR ADAPTATION TO CDK2 INHIBITORS” (Pfizer Inc., priority 2020, published 2023):

Tests used:
[1] = tested on: Kras^+/LSLG12V; Trp53^L/L lung tumors; assay: Mouse lung tumor model, tumor volume by CT scans; assay type: in vivo
Protocol: To test the potential compensatory relationship between CDK2 and CDK4/6 in vivo, an established mouse lung tumor model driven by KRAS^G12V and TRP53 mutations was used. Kras^+/LSLG12V, Trp53^L/L mice intra-nasally infected with adenoviral particles encoding Cre recombinase developed lung tumors with a latency of 5 months. Once tumor development was detected by CT scans, animals were treated with either vehicle or palbociclib (70 mg/kg QD) for 28 days and tumor volumes were subsequently measured by CT scans at the end of the treatment period.
Mice: Kras^+/LSLG12V Trp53^L/L and Cdk2^−/− mice have been previously described (Guerra et al., 2003; Jonkers et al., 2001; Ortega et al., 2003). Compound mice using the following transgenes: Kras^+/LSLG12V, (Guerra et al., 2003); Trp53^L/L (Lee et al., 2012), and Cdk2^−/− (Ortega et al., 2003) were generated for this study. All animal experiments were approved by the Ethical Committees of the Spanish National Cancer Research Centre (CNIO), the Carlos III Health Institute and the Autonomous Community of Madrid (PROEX 270/14) and were performed in accordance with the guidelines stated in the International Guiding Principles for Biomedical Research Involving Animals, developed by the Council for International Organizations of Medical Sciences (CIOMS). Mice were housed in specific-pathogen-free conditions at CNIO's Animal Facility (AAALAC, JRS:dpR 001659). Female and male mice were used for the experiments. All mice were genotyped at the CNIO's Genomic Unit. […]
Micro CT imaging: Image studies were done by the Molecular Imaging Core Unit at the CNIO. […] Tumor volume was calculated as follows: (short axis x short axis x long axis/2).
Pharmacological treatment in mice: Kras^+/LSLG12V; Trp53^L/L; Cdk2^−/− and Kras^+/LSLG12V; Trp53^L/L; Cdk2^+/+ mice were infected with 10^6 pfu of Ad-Cre. Once tumors were detected by CT, mice harboring at least one tumor bigger than 3 mm^3 were enrolled in the different treatment groups. […] Drug efficacy was monitored by CT measurements.

[2] = tested on: Rb, Nucleolin, Cdc6 and Nbs1 phosphorylation; assay: Immunofluorescence and western blotting of endogenous CDK2 substrates; assay type: cell-based, human; conditions: for Rb phosphorylation: 1 hr palbociclib treatment
Protocol: Cells were fixed for 15 minutes with freshly prepared 4% paraformaldehyde, washed twice with PBS, and incubated with a blocking buffer (3% BSA in PBS) for 1 hr at room temperature. Permeabilization was carried out using 0.2% Triton-X 100 for 15 min at 4° C. Primary antibody was diluted in blocking buffer and incubated with cells overnight at 4° C. followed by three washes with 1×PBS. Secondary antibodies conjugated to Alexa Fluor 488, Alexa Fluor 546 or Alexa Fluor 647 were incubated for 1 hr followed by three washes with 1×PBS. DNA was stained using Hoechst 33342 dye for 10 minutes at 1:10000 (ThermoFisher H3570). Images were acquired on a Nikon Eclipse Ti or Ti2 microscope with a 10×0.45 NA objective. DNA content was determined by taking the integrated intensity of each cell's Hoechst signal. Cells were delineated as 3-4N DNA content by plotting a histogram of DNA content and drawing a threshold and the end of the 2N peak.
Lysates were prepared using 1×LDS sample buffer (ThermoFisher NP007) using equal numbers of cells. Proteins were separated using NuPAGE precast polyacrylamide gels (ThermoFisher NP0301). Total protein was quantified using Azure Red Dye (Azure Biosystems AC2124) and was used to normalize the signal from antibodies of interest. Primary antibodies used are specified under the “Antibodies” section. HRP-conjugated or IR700 and IR800 labeled fluorescent secondary antibodies were used for visualization (Cell Signaling Technology 7074 and 7076).

| Compound | tumor volumes ([1]; PF3600 50 mg/kg BID for 4 weeks, Trp53^L/L mice) | Rb and Nucleolin phosphorylation by immunofluorescence ([2]; 100 nM PF3600, MCF10A cells with 3-4N DNA content) | tumor size ([1]; palbociclib 70 mg/kg QD for 4 weeks, Trp53^L/L, Cdk2^−/− mice, p=0.037) | tumor volume fold change vs vehicle ([1]; palbociclib 70 mg/kg QD for 28 days, Trp53^L/L mice (Cdk2^+/+)) | Rb phosphorylation ([2]; cells with 2N DNA content) | Rb phosphorylation ([2]; cells with 3-4N DNA content) |
| --- | --- | --- | --- | --- | --- | --- |
| C[C@@]1(O)CCC[C@H]1n1c(=O)c(C(F)F)cc2cnc(NC3CCN(S(C)(=O)=O)CC3)nc21 [PF3600, 6-(difluoromethyl)-8-[(1R,2R)-2-hydroxy-2-methylcyclopentyl]-2-{[1-(methylsulfonyl)-piperidin-4-yl]amino}pyrido[2,3-d]pyrimidin-7(8H)-one] | significantly reduced tumor volumes | transient reduction in Rb and Nucleolin phosphorylation followed by a rebound |  |  |  |  |
| CC(=O)c1c(C)c2cnc(Nc3ccc(N4CCNCC4)cn3)nc2n(C2CCCC2)c1=O [palbociclib] |  |  | significantly reduced tumor size | no significant reduction in tumor burden | dephosphorylation of Rb | no effect |
